This passage reports GHS category results from the CATMoS acute toxicity set (Mansouri et al. 2021).

This data set can be described thus: GHS categories as the set defines them, by LD50: 1 up to 5, 2 up to 50, 3 up to 300, 4 up to 2000, 5 above 2000 mg/kg. The note with it: rat; in vivo; po.

With `COc1n[nH]c(=O)n1C`, the GHS category worked out at 5.
Consider `CC(C)C[C@H](N)C(=O)O`, for which the GHS category is 5.
The same measure for `O=C(O)CCCC/C=C(\c1ccccc1)c1cccnc1`: 5; for `CC1C(C)(C)C2CCc3cncnc3C2C1(C)C` (centres undefined): 4.
The same measure for `CCN(CC)CCC#N`: 4; for `CCOC(=O)c1sc(-c2ccc(OCC(C)C)c(C=O)c2)nc1C`: 5.
For the compound `FC(F)(F)C(F)(F)C(Cl)Cl`, the GHS category was 5.
In turn, `O=C(O)c1ccccc1SSc1ccccc1C(=O)O` gave a GHS category of 5.
As to `c1ccc(COc2ccc3ccccc3c2)cc1`, the GHS category turned out to be 5.
In the case of `CC1(C)C[C@@H]1C(=O)N/C(=C\CCCCSC[C@H](N)C(=O)O)C(=O)O`, the GHS category was 5.
As to `O=C(O)c1cc(O)ccc1Nc1ccc(O)c(C(F)(F)F)c1`, the GHS category was found to be 4.
As for `Cn1c(N)c(NC=O)c(=O)n(C)c1=O`, the GHS category is reported as 5.
For `CCOC(=O)C(=O)Nc1cc(Cl)ncn1`, the GHS category came to 4.
For `N#CCCNCCCCCCNCCC#N` the value was 5.
`CO/N=C(/C(=O)N[C@@H]1C(=O)N2C(C(=O)O)=C(COC(C)=O)CS[C@H]12)c1csc(N)n1` showed a GHS category of 5.
`CN1CC(c2ccn(C)n2)CC2c3cccc4[nH]cc(c34)CC21` (centres undefined) gave a GHS category of 4.
The compound `CCO[Si](CCCOCC1CO1)(OCC)OCC` (centres undefined) returned a GHS category of 5.
For `CC(=O)c1c(C)c([N+](=O)[O-])c(C(C)(C)C)c([N+](=O)[O-])c1C` the value was 5; for `CC(CCC(=O)O)C1CCC2C3C(OS(=O)(=O)O)CC4CC(OS(=O)(=O)O)CCC4(C)C3CCC12C` (centres undefined), 5.
The compound `CNC(=O)c1c(I)c(NC(=O)CCCCC(=O)Nc2c(I)c(C(=O)O)c(I)c(C(=O)NC)c2I)c(I)c(C(=O)O)c1I` returned a GHS category of 5.
The same measure for `CNc1ccc([N+](=O)[O-])cc1`: 5.
`COc1ccc(Cl)cc1N/C(=N/C1CCCCC1)c1cccc(C)c1` gave a GHS category of 4.
Compound `C[C@@H]1O[C@@H]1P(=O)(O)O` had a GHS category of 5.
Compound `C[Si]1(C)O[Si](C)(C)O[Si](C)(C)O[Si](C)(C)O[Si](C)(C)O1` displayed a GHS category of 5.
For `O=C(O)c1ccccc1C(=O)c1ccc(-c2ccccc2)cc1`, the GHS category is 5.
On to `CCCCOC(=O)CC(C)C`, for which the GHS category worked out at 5.
Regarding `COc1cc(C=CC(=O)CC(=O)C=Cc2ccc(O)c(OC)c2)ccc1O`, the GHS category is on record as 5.
Turning to `CCCNC(=O)Cc1cnc2cccc(C)n2c1=O`, the GHS category is given as 3.
Take `CC(=O)CC(=O)OCCOC(=O)CC(C)=O`: the GHS category worked out at 5.
The compound `COC(=O)C1=C(C)NC(C)=C(C(=O)O)C1c1cc([N+](=O)[O-])ccc1F` (centres undefined) returned a GHS category of 5.
`CCOC(=O)OCCOc1cc(O)c2c(c1N)C(=O)c1ccccc1C2=O` came in with a GHS category of 5.
Consider `CCCCCCCCCCCCCC(=O)OCCCC`, for which the GHS category amounted to 5.
The same measure for `CCCCCCC(COC(=O)c1cccnc1)(COC(=O)c1cccnc1)COC(=O)c1cccnc1`: 5; for `C1C[C@@H]2[C@H]3CC[C@H](C3)[C@@H]2C1`: 5.
Take `Cc1c(C2=C(O)CC(C)(C)CC2=O)c2c(n1-c1ccccc1)CC(C)(C)CC2=O`: the GHS category was 5.
The same measure for `CC(=O)[C@@]1(O)CC[C@H]2[C@@H]3C=C(Cl)C4=CC(=O)CC[C@]4(C)[C@H]3CC[C@@]21C`: 5; for `O=S(=O)(O)c1ccccc1Nc1ccc(C(=C2C=CC(=Nc3ccccc3)C=C2)c2ccc(Nc3ccccc3)cc2)cc1`: 5.
`NC(=O)Oc1ccccc1C(=O)Oc1cc(Cl)ccc1Cl`: the GHS category came to 5.
`NC(=O)O` yielded a GHS category of 4.
The same measure for `CCCCCCCCCCCCCCCC(=O)O[C@@H]1C[C@@H](C(=O)O)N(C(=O)CCCCCCCCCCCCCCC)C1`: 5.
Consider `CC(C)CCCCCCCCCCO`, for which the GHS category was 5.
`CCOC(=O)C(=O)Nc1cc(SCCOC)nc(C)n1` gave a GHS category of 4.
As to `CC(C)(c1cc(Br)c(O)c(Br)c1)c1cc(Br)c(O)c(Br)c1`, the GHS category is 5.
Compound `CCOC(=O)C(Cl)(Cl)Cl` came in with a GHS category of 5.
For `O=C1NC(=O)c2ccc3c4ccc5c6c(ccc(c7ccc1c2c73)c64)C(=O)NC5=O` the value was 5; for `O=P(Oc1ccccc1)(Oc1ccccc1)Oc1cccc(OP(=O)(Oc2ccccc2)Oc2ccccc2)c1`, 5.
As to `O=C(O)c1cc(=O)c2c(OCC(O)COc3cccc4oc(C(=O)O)cc(=O)c34)cccc2o1`, the GHS category worked out at 5.
Turning to `CC1(C)S[C@@H]2[C@H](NC(=O)[C@H](NC(=O)N3CCN(S(C)(=O)=O)C3=O)c3ccccc3)C(=O)N2[C@H]1C(=O)O`, the GHS category came out at 5.
The compound `N#CC1CCCC2OCC(c3ccccc3)N12` (centres undefined) showed a GHS category of 5.
For `O=[N+]([O-])c1ccc(CCc2ccc([N+](=O)[O-])cc2)cc1`, the GHS category was found to be 5.
Regarding `NC(=O)Oc1ccccc1C(=O)Oc1ccccc1Cl`, the GHS category was determined as 5.
`NCCCCCCCCCCCC(=O)O` returned a GHS category of 5.
For `C=COC(=O)CCCCCCCCCCC` the value was 5.
`O=C(Cc1ccccc1)C1C(=O)CC(c2ccccc2)CC1=O` (centres undefined) registered a GHS category of 5.
On to `NCC1CCC(N)C(OC2C(N)CC(N)C(OC3OC(CO)C(O)C(N)C3O)C2O)O1` (centres undefined), for which the GHS category was found to be 5.
Take `O=c1c2n[nH]nc2nc2sc(CCC3CCCCC3)nn12`: the GHS category worked out at 5.
`CN1CC(O)C2=C/C(=N/NC(N)=O)C(=O)C=C21` (centres undefined) gave a GHS category of 5.
On to `C=C1c2cccc(O)c2C(=O)C2=C(O)[C@]3(O)C(=O)C(C(N)=O)=C(O)[C@@H](N(C)C)[C@@H]3[C@@H](O)[C@H]12`, for which the GHS category is on record as 5.
In turn, `CCCCC(CC)COC(=O)c1ccc([N+](=O)[O-])cc1` (centres undefined) gave a GHS category of 5.
Compound `CN1C(=O)C(C)(C)Oc2cc(C(=O)c3ccc(Cl)cc3)ccc21` returned a GHS category of 5.
`O=C1NC(=O)C(c2ccccc2)(c2ccccc2O)N1` (centres undefined) gave a GHS category of 5.
`O=C1OC(=O)c2ccc3c4ccc5c6c(ccc(c7ccc1c2c73)c64)C(=O)OC5=O` yielded a GHS category of 5.
`Cc1cc(CCCCCCCOc2ccc(C3=NCCO3)cc2)on1` showed a GHS category of 5.
Turning to `CCCCCCOC(=O)CC(C)C`, the GHS category was found to be 5.
For `NC1=NCC2c3ccccc3Cc3ccccc3N12` (centres undefined), the GHS category is 4.
For `O=C(O[C@H]1[C@H](OC(=O)c2cccnc2)[C@@H](OC(=O)c2cccnc2)[C@H](OC(=O)c2cccnc2)[C@@H](OC(=O)c2cccnc2)[C@H]1OC(=O)c1cccnc1)c1cccnc1` the value was 5.
With `NCCCC(N)(C(=O)O)C(F)F` (centres undefined), the GHS category amounted to 5.
The compound `CCOc1nc2cccc(C(=O)O)c2n1Cc1ccc(-c2ccccc2-c2nnn[nH]2)cc1` yielded a GHS category of 5.
In turn, `CCCCCCCCCCCCCCCCCCOC(=O)CCSCCC(=O)OCCCCCCCCCCCCCCCCCC` returned a GHS category of 5.
Compound `C[N+](C)(C)NCCC(=O)[O-]` returned a GHS category of 5.
In turn, `CCC(COC(=O)c1cc(OC)c(OC)c(OC)c1)(c1ccccc1)N(C)C` (centres undefined) had a GHS category of 5.
The same measure for `CCc1cccc(OP(=O)(Oc2cccc(CC)c2)Oc2cccc(CC)c2)c1`: 5; for `CC1=C(/C=C/C(C)=C/C=C/C(C)=C/C=C/C=C(C)/C=C/C=C(C)/C=C/C2=C(C)CCCC2(C)C)C(C)(C)CCC1`: 5; for `CO[Si](C)(C)CCl`: 4.
For the compound `COC(=O)c1cc(F)ccc1[N+](=O)[O-]`, the GHS category amounted to 5.
In turn, `CNC(=O)Oc1cc(C)cc(C)c1C` returned a GHS category of 3.
`COC(=O)CCCCCCCCCC[Si](C)(C)Cl` gave a GHS category of 5.
For the compound `CCCC1OC(Cn2cncn2)(c2cc3ccccc3o2)OCC1(C)C` (centres undefined), the GHS category was found to be 4.
Take `O=c1nc2nc[nH]n2c(COCc2ccccc2)c1Cc1ccc(-c2ccccc2-c2nn[nH]n2)cc1`: the GHS category is listed as 4.
Turning to `CC(O)COC(=O)c1c(Br)c(Br)c(Br)c(Br)c1C(=O)OCCOCCO` (centres undefined), the GHS category worked out at 5.
For the compound `CC1Cc2ccccc2N1NC(=O)c1ccc(Cl)c(S(N)(=O)=O)c1` (centres undefined), the GHS category is 5.
As for `C=C(C)CCCC(C)CCOC(C)=O` (centres undefined), the GHS category is reported as 5.
The compound `CCCCOC(=O)C1(O)c2ccccc2-c2ccccc21` had a GHS category of 5.
`CCO[Si](C)(CCCN)OCC` had a GHS category of 5.
As to `Nc1c(/N=N/c2ccc(S(=O)(=O)CCOS(=O)(=O)O)cc2)c(S(=O)(=O)O)cc2cc(S(=O)(=O)O)c(/N=N/c3ccc(S(=O)(=O)CCOS(=O)(=O)O)cc3)c(O)c12`, the GHS category is 5.
Take `C=CCCCCCCCCC(C)CCCCCCCC` (centres undefined): the GHS category is recorded as 5.
With `CCOC(=O)c1ocnc1C`, the GHS category was 5.
For `C[C@]12CC[C@H](O)CC1=CC[C@@H]1[C@@H]2CC[C@]2(C)C(=O)CC[C@@H]12` the value was 5; for `COC12CC(COC3=CC(=O)CC3)CN(C)C1Cc1cn(C(C)(C)C)c3cccc2c13` (centres undefined), 4; for `C=CCOc1cc(Cl)ccc1C(=O)NCCN(CC)CC`, 5.
As for `COc1cc(S(=O)(=O)O)c(C)cc1NC(=O)CC(C)=O`, the GHS category is listed as 5.
For `N[C@@H](CC(=O)O)C(=O)O` the value was 5; for `CCOC(=O)C1N=C(c2ccccc2F)c2cc(Cl)ccc2NC1=O` (centres undefined), 5.
`CCCCN1CCCC1=O` registered a GHS category of 4.
Compound `C=C[Si]1(C)O[Si](C)(C=C)O[Si](C)(C=C)O[Si](C)(C=C)O1` (centres undefined) showed a GHS category of 5.
For `COc1ccccc1OC(=O)c1ccccc1Nc1cccc(C)c1C`, the GHS category was determined as 5.
With `CCC1OC(=O)C(C)C(OC2CC(C)(OC)C(O)C(C)O2)C(C)C(OC2OC(C)CC(N(C)C)C2O)C(C)(O)CC(C)C(=O)C(C)C(O)C1(C)O` (centres undefined), the GHS category came to 5.
On to `CCOC(=O)c1c(N)sc2c1CCN(Cc1ccccc1)C2`, for which the GHS category is on record as 5.
With `CC(C)COP(O)(=S)OCC(C)C`, the GHS category amounted to 5.
